Source: patent publication US8962058B2, “High-potency sweetener composition with antioxidant and compositions sweetened therewith” (The Coca-Cola Company, priority 2005, dated 2015)

How the values were obtained:
[1] = system: panel of experts in the sensory evaluation of foods and beverages; experiment: Sensory evaluation of sweetness linger by expert panel; type: in vivo; design: key: 0=no sweetness linger; 1=very slight sweetness linger; 2=slight sweetness linger; 3=moderate sweetness linger; 4=moderately high sweetness linger; 5=high sweetness linger; conditions: for Sweetness Linger rating as defined for the protocol's controls: scale anchors: sucrose, 500 ppm REBA control sample; for Sweetness linger rating: scale 0-5
Description: In a particular embodiment, a panel of assessors is used to measure the reduction of sweetness linger. Briefly described, a panel of assessors (generally 8 to 12 individuals) is trained to evaluate sweetness perception and measure sweetness at several time points from when the sample is initially taken into the mouth until 3 minutes after it has been expectorated. […] A decrease in score for a time point measured after the sample has cleared the mouth indicates there has been a reduction in sweetness perception.
The panel of assessors may be trained using procedures well known to those of ordinary skill in the art. In a particular embodiment, the panel of assessors may be trained using the Spectrum™ Descriptive Analysis Method (Meilgaard et al, Sensory Evaluation Techniques, 3rd edition, Chapter 11). Desirably, the focus of training should be the recognition of and the measure of the basic tastes; specifically, sweet. In order to ensure accuracy and reproducibility of results, each assessor should repeat the measure of the reduction of sweetness linger about three to about five times per sample, taking at least a five minute break between each repetition and/or sample and rinsing well with water to clear the mouth.
Generally, the method of measuring sweetness comprises taking a 10 mL sample into the mouth, holding the sample in the mouth for 5 seconds and gently swirling the sample in the mouth, rating the sweetness intensity perceived at 5 seconds, expectorating the sample (without swallowing following expectorating the sample), rinsing with one mouthful of water (e.g., vigorously moving water in mouth as if with mouth wash) and expectorating the rinse water, rating the sweetness intensity perceived immediately upon expectorating the rinse water, waiting 45 seconds and, while waiting those 45 seconds, identifying the time of maximum perceived sweetness intensity and rating the sweetness intensity at that time (moving the mouth normally and swallowing as needed), rating the sweetness intensity after another 10 seconds, rating the sweetness intensity after another 60 seconds (cumulative 120 seconds after rinse), and rating the sweetness intensity after still another 60 seconds (cumulative 180 seconds after rinse). Between samples take a 5 minute break, rinsing well with water to clear the mouth.
Sensory evaluation of the samples prepared in Example Set G was carried out under the following protocol, similar to that described hereinabove. In this test protocol, none of the samples were swallowed. […] Immediately upon sensing maximal sweetness, the sample was expectorated, the mouth was rinsed with water and the rate of sweetness decay (“Sweetness Linger”) was measured, where attention was focused on the sweetness 3-4 min after the water rinse. […]

[2] = Sweetness level as sucrose equivalent

| Molecule | Sweetness Linger rating as defined for the protocol's controls [1] | Sweetness linger rating ([1]; Example Set G: citric acid/potassium citrate composition equivalent to diet lemon-lime beverage (citrate buffer), sweetness 3-4 min after water rinse) | Sweetness linger rating ([1]; Example Set H: carbon-treated water, phosphoric acid (75%) to pH 2.4-2.5) | sucrose equivalence ([2]; 180 ppm rebaudioside A in 1:1 diluted commercial beverage) | sucrose equivalence ([2]; 400 ppm REBA in citric acid/potassium citrate composition) |
| --- | --- | --- | --- | --- | --- |
| OC[C@H]1O[C@@](CO)(O[C@H]2O[C@H](CO)[C@@H](O)[C@H](O)[C@H]2O)[C@@H](O)[C@@H]1O [sugar, sucrose] | 0 |  |  |  |  |
| rebaudioside A | 5 | 5 | 5 | 5 % sucrose | 8 g sucrose |
